Data set [1] is described as follows: Half life in Sprague-Dawley rat at 6 mg/kg, po. It counts as ADME, organism-based. Conditions: in vivo.
Data set [2] in a line: AUC (0 to infinity) in Sprague-Dawley rat at 6 mg/kg, po. The data set is classed as ADME, organism-based. Further details: time infinity, dose 6 mg/kg, route po. The conditions noted are these: in vivo.
A short description of data set [3]: Volume of distribution in steady state in Sprague-Dawley rat at 6 mg/kg, po. The data set is classed as ADME, organism-based. Conditions: in vivo.
The nature of data set [4]: Cmax in Sprague-Dawley rat at 6 mg/kg, po. Conditions: in vivo. It counts as ADME, organism-based. The arrangement: dose 6 mg/kg, route po.
Data set [5] can be described thus: Hepatic clearance in Sprague-Dawley rat at 6 mg/kg, po. It counts as ADME, organism-based. The conditions noted are these: in vivo.
Data set [6] is described as follows: Drug concentration in Sprague-Dawley rat brain at 10 umol/kg, po measured after 4 hrs by LC-MS/MS analysis. It counts as ADME, organism-based. Conditions: dose 10 µmol/kg, read-out: Drug uptake.
Data set [7] in a line: Drug concentration in Sprague-Dawley rat blood at 100 umol/kg, po measured after 4 hrs by LC-MS/MS analysis. The conditions noted are these: dose 100 µmol/kg, read-out: Drug uptake. It counts as ADME, organism-based.
Data set [8] in a line: Thermodynamic solubility of the compound at pH 1. It counts as physicochemical. Conditions: buffer, read-out: Therm_solubility.
Data set [9] can be described thus: Solubility of the compound at pH 6.8. It counts as physicochemical. The conditions noted are these: buffer.
Data set [10] in a line: Half life in C57BL/6 mouse at 6 mg/kg, po. It counts as ADME, organism-based. The conditions noted are these: in vivo.
Data set [11] can be described thus: Hepatic clearance in Beagle dog at 0.3 mg/kg, po. It counts as ADME, organism-based, Canis lupus familiaris. The conditions noted are these: in vivo.
Data set [12] is described as follows: Drug concentration in Sprague-Dawley rat blood at 3 umol/kg, po measured after 4 hrs by LC-MS/MS analysis. The data set is classed as ADME, organism-based. Conditions: dose 3 µmol/kg, read-out: Drug uptake.
A short description of data set [13]: Drug concentration in Sprague-Dawley rat brain at 100 umol/kg, po measured after 4 hrs by LC-MS/MS analysis. It counts as ADME, organism-based. The conditions noted are these: dose 100 µmol/kg, read-out: Drug uptake.
A short description of data set [14]: AUC (0 to infinity) in C57BL/6 mouse at 6 mg/kg, po. The data set is classed as ADME, organism-based. Further details: time infinity, dose 6 mg/kg, route po. Conditions: in vivo.
The nature of data set [15]: Clearance in human liver microsomes incubated up to 80 mins by LC-MS/MS analysis. The data set is classed as ADME, Microsome. The conditions noted are these: 1.333 h. A general note: Microsomes from liver hold many membrane-bound enzymes, among them those of drug oxidation.
A short description of data set [16]: Volume of distribution in steady state in C57BL/6 mouse at 6 mg/kg, po. Conditions: in vivo. It counts as ADME, organism-based.
Data set [17] can be described thus: Octanol/water partition coefficient, log P of the compound. It counts as physicochemical.
A short description of data set [18]: Unbound drug concentration in Sprague-Dawley rat brain at 30 umol/kg, po measured after 4 hrs by LC-MS/MS analysis. It counts as ADME, organism-based. The conditions noted are these: in vivo, dose 30 µmol/kg.
Data set [19] is described as follows: Cmax in C57BL/6 mouse at 6 mg/kg, po. The data set is classed as ADME, organism-based. Further details: dose 6 mg/kg, route po. Conditions: in vivo.
A short description of data set [20]: Oral bioavailability in Sprague-Dawley rat at 6 mg/kg. The data set is classed as ADME, organism-based. The conditions noted are these: in vivo.
The nature of data set [21]: Drug concentration in Sprague-Dawley rat brain at 3 umol/kg, po measured after 4 hrs by LC-MS/MS analysis. The data set is classed as ADME, organism-based. The conditions noted are these: dose 3 µmol/kg, read-out: Drug uptake.
Data set [22] is described as follows: Oral bioavailability in C57BL/6 mouse at 6 mg/kg. The data set is classed as ADME, organism-based. The conditions noted are these: in vivo.
A short description of data set [23]: Oral bioavailability in Beagle dog at 0.3 mg/kg. It counts as ADME, organism-based, Canis lupus familiaris. The conditions noted are these: in vivo.
Data set [24] is described as follows: Clearance in Beagle dog at 6 mg/kg, po. The data set is classed as ADME, organism-based, Canis lupus familiaris. The conditions noted are these: in vivo.
Data set [25] can be described thus: Unbound drug concentration in Sprague-Dawley rat brain at 100 umol/kg, po measured after 4 hrs by LC-MS/MS analysis. It counts as ADME, organism-based. The conditions noted are these: in vivo, dose 100 µmol/kg.
Data set [26] can be described thus: Cmax in Beagle dog at 0.3 mg/kg, po. The data set is classed as ADME, organism-based, Canis lupus familiaris. The arrangement: dose 0.3 mg/kg, route po. Conditions: in vivo.
Data set [27] in a line: Unbound drug concentration in Sprague-Dawley rat brain at 10 umol/kg, po measured after 4 hrs by LC-MS/MS analysis. It counts as ADME, organism-based. Conditions: in vivo, dose 10 µmol/kg.
A short description of data set [28]: Unbound drug concentration in Sprague-Dawley rat brain at 3 umol/kg, po measured after 4 hrs by LC-MS/MS analysis. It counts as ADME, organism-based. The conditions noted are these: in vivo, dose 3 µmol/kg.
Data set [29] in a line: Clearance in mouse liver microsomes incubated up to 80 mins by LC-MS/MS analysis. Conditions: 1.333 h. The data set is classed as ADME, Microsome.
The nature of data set [30]: Thermodynamic solubility of the compound at pH 6.8. The data set is classed as physicochemical. The conditions noted are these: buffer, read-out: Therm_solubility.
Data set [31] in a line: Drug concentration in Sprague-Dawley rat blood at 10 umol/kg, po measured after 4 hrs by LC-MS/MS analysis. It counts as ADME, organism-based. The conditions noted are these: dose 10 µmol/kg, read-out: Drug uptake.
The nature of data set [32]: Kinetic solubility of the compound at pH 7.4. It counts as physicochemical. The conditions noted are these: buffer, read-out: Kinetic_solubility.
Data set [33] is described as follows: Drug concentration in Sprague-Dawley rat blood at 30 umol/kg, po measured after 4 hrs by LC-MS/MS analysis. The conditions noted are these: dose 30 µmol/kg, read-out: Drug uptake. It counts as ADME, organism-based.
The nature of data set [34]: Volume of distribution in steady state in Beagle dog at 0.3 mg/kg, po. It counts as ADME, organism-based, Canis lupus familiaris. Conditions: in vivo.
A short description of data set [35]: AUC (0 to infinity) in Beagle dog at 0.3 mg/kg, po. The data set is classed as ADME, organism-based, Canis lupus familiaris. Further details: time infinity, dose 0.3 mg/kg, route po. The conditions noted are these: in vivo.
Data set [36] in a line: Drug concentration in Sprague-Dawley rat brain at 30 umol/kg, po measured after 4 hrs by LC-MS/MS analysis. It counts as ADME, organism-based. Conditions: dose 30 µmol/kg, read-out: Drug uptake.
Data set [37] can be described thus: Half life in Beagle dog at 0.3 mg/kg, po. It counts as ADME, organism-based, Canis lupus familiaris. Conditions: in vivo.
Data set [38] in a line: Clearance in rat liver microsomes incubated up to 80 mins by LC-MS/MS analysis. Conditions: 1.333 h. The data set is classed as ADME, Microsome.

In brackets after ≈: the same amount, converted by molar mass.

Usually half-life stands for the time needed for the level to fall by half in the phase considered. Lower therefore signals fast loss. One may read the AUC as the area under the concentration-time curve, a measure of exposure. Lower therefore signals less exposure. Usually Cmax stands for the highest concentration seen after dosing. Consider `Cc1cc(C#N)cnc1C(=O)Nc1ccc(F)c([C@]2(C)CO[C@@](C)(C(F)(F)F)C(N)=N2)c1`, for which the half-life in data set [1] was 4.9 h. Further, in [2], the AUC amounted to 0.973 µM·h. The Vdss in data set [3] came out at 9 L/kg. For the same compound, the Cmax in data set [4] is 128 nM. The compound also had a CLH in [5] of 17 mL/min/kg.
The solubility is the dissolved amount per volume that the medium holds. For orientation: logP means a log measure of how a compound divides between an organic and an aqueous phase. Broadly, the bioavailability is the share of a dose that reaches the circulation, judged against a reference dose that is usually intravenous. One may read the CL/F as the apparent clearance, not corrected for the fraction that reaches the circulation. The AUC(0-inf) is total exposure, with the tail of the curve extrapolated. Regarding `C[C@@]1(c2nc(NC(=O)c3ncc(C(F)(F)F)cc3Cl)ccc2F)CO[C@@](C)(C(F)(F)F)C(N)=N1`, the half-life in [1] is 13.3 h; in data set [10], 9.5 h; in data set [37], 23.4 h. Further, the concentration at 4 h in data set [6] is 850 nM; in data set [7], 3430 nM; in [12], 160 nM; in data set [13] it was 3600 nM; in [21] it was 180 nM; in data set [31] it was 440 nM. In addition, the concentration at 4 h was 1710 nM in data set [33] and 3280 nM in [36]. Moreover, the solubility thermodynamic in data set [8] is more than 1500 µg/mL; in data set [30] it was 23 µg/mL (≈ 44.8 µM). This compound returned a solubility in [9] of 13 µg/mL (≈ 25.3 µM). Also, the CLH came to 3.3 mL/min/kg in data set [11]; 26 µL/min/mg in data set [15]; 32 µL/min/mg in [29]; 37 mL/min/kg in data set [5]; 37 µL/min/mg in data set [38]. The AUC was 2.045 µM·h in [2] and 1.16 µM·h in data set [14]. Further, the results for the Vdss in data set [16], in data set [3] and in [34] were 6.9 L/kg, 6.9 L/kg and 3.9 L/kg, respectively. The compound also came in with a logP in data set [17] of 4.3. For the same compound, the “Drug uptake(free)” value is 0.12 µM in [18], 0.03 µM in [25], 0.008 µM in [27] and 0.002 µM in [28]. For the same compound, the Cmax in [19] is 82 nM; in [26] it was 257 nM; in [4] it was 146 nM. Moreover, the bioavailability in [20] was determined as 60%; in data set [22], 48%; in [23], 57%. Also, the CL/F in data set [24] amounted to 2 mL/min/kg. Further, in [32], the solubility kinetic worked out at 15 µg/mL (≈ 29.2 µM). Moreover, the AUC(0-inf) in [35] worked out at 7.75 µM·h.
On to `COCCOc1cnc(C(=O)Nc2ccc(F)c([C@]3(C)CO[C@@](C)(C(F)(F)F)C(N)=N3)n2)c(N)n1`, for which the CLH in data set [29] was 866 µL/min/mg; in data set [38], 204 µL/min/mg.

The values above are taken from ChEMBL document CHEMBL5053529 (J Med Chem, 2021).
